Measurements published in patent publication US12077495B2 (priority 2018, dated 2024).

Columns and labels:
[1] = tested on: permanent middle cerebral artery occlusion in C57BL/6J mice; experiment: pMCAO model of focal ischemia, infarct volume; format: in vivo; conditions: 175 mg/kg 30 min after pMCAO; day 3; saline 16.6
Description: The pMCAO study was performed using age-matched, young adult (7-8 weeks), male C57BL/6J mice (Taconic). Mice were housed in separate cages under diurnal lighting and given free access to food (1314 Altromin) and water. Mice were acclimatized for seven days prior to surgery in accordance with guidelines approved by the Danish Animal Ethical Committee.
Focal cerebral ischemia was made by permanent occlusion of the distal part of the left middle cerebral artery (MCA). Mice were anesthetized by injection of a mixture of Hypnorm (fentanyl citrate 0.315 mg/ml and fluanisone 10 mg/ml; Jansen-Cilag), Stesolid (5 mg/ml Diazepamum; Dumex) and distilled water (1:1:2; 0.20 ml/10 g body weight, s.c.). The mouse was placed on a 37±0.5° C. warm heating pad and a skin incision was made from eye to ear. […]
For quantification of the infarcted area, animals were perfused with saline and then with 4% paraformaldehyde (PFA) and the brain dissected out and submerged in 4% PFA for post-fixing overnight. […] Sections were mounted, stained for cresyl violet and the infarct volumes determined by measuring every 6th section through the entire infarct as described in Lie et al (2017). […] The glass slides were stored at −80° C. until further processing, and then Cresyl-Violet stained and quantified as described for the photothrombotic photochemical method. […]

[2] = tested on: permanent middle cerebral artery occlusion in C57BL/6J mice; experiment: pMCAO model, behavioural assessment (rotarod, grip strength, Hargreaves); format: in vivo; conditions: 175 mg/kg 30 min after pMCAO
Description: To assess sensory-motor impairment, animals were tested in the rotarod, grip strength and Hargreaves tests 2-3 days post-stroke.
The rotarod (LE 8200, Panlab) measures motor performance in rodents by assessing the time during which the animal remains on a rotating rod. The rod rotation accelerates from 0 to 40 rounds per min (rpm) over a time period of 5 min 48 hrs post-stroke, mice were tested in four repeating trials with a 20 min interval (resting time). Prior to surgery, mice were pretrained to stay on the rod for 30 s at 4 rpm. The grip strength meter (BIO-GT-3, BIOSEB) allowed the study of neuromuscular functions in mice by determining the maximum force that is required to make the mouse release its grip.
The mouse is allowed to grasp a metal grid and then pulled backwards in the horizontal plane. The force applied to the grid is recorded as the peak tension. Individual (right and left) and total (both) front paw grip strength was measured before (baseline) and 3 days after pMCAO. Each mouse was tested in five sequential trials and the highest grip strength was recorded as the score. Thermal hyperalgesia (hind paw withdrawal from a normally innocuous heat source) was tested with a Hargreaves test setup. […] The lowest and highest reflex latency scores were discarded and the average for left and right was calculated and plotted.
Compound A (175 mg/kg) was administered to mice 30 min after induction of a focal stroke via a permanent occlusion of the middle cerebral artery and compared to saline-treated animals and both motor- and sensory impairment was investigated using rotarod, grip strength and Hargreaves tests.

[3] = molecular target: T1, CAMK2A pThr286 autophosphorylation (Mus musculus, UniProt P11798); experiment: pThr286 autophosphorylation in dissected mouse cortex after photothrombosis (Western blot); format: in vivo, mice; conditions: 175 mg/kg i.p.; cortex tissue; pThr286 normalized to total CAMK2A
T1 construct: cortical tissue isolated from mice subjected to photothrombotic injury; from tissue; host or cells: mouse cortex (infarct core), C57BL/6J, after in vivo dosing
Description: Along with the standard protocol for photothrombotic focal ischemia, mice were treated with either saline or 175 mg/kg A (i.p.) 30 min after the injury. Three hours after the injury, mice were sacrificed, brains were dissected out and immediately submerged in ice-cold PBS supplemented with 1% phosphatase and protease inhibitors (Phosphatase inhibitor cocktail 3 #P0044 (Sigma), Phosphatase inhibitor cocktail 2 #P5726 (Sigma) and complete EDTA protease inhibitors (Roche) for 5 min. Cortex tissue from the infarct core region (i.e. 1.5 mm right of bregma including the primary motor cortex with a diameter of 2 mm) was dissected and snap-frozen on dry ice. Tissue homogenization was performed using 1×RIPA buffer supplemented with phosphatase and protease inhibitors and a Bullet Blender. Autophosphorylation was assessed by Western blot analysis, comparing the total level of CAMK2A (quantified using anti-CAMK2A, #NB100-1983, Novus Biologicals) to the level of phosphorylated CAMK2A (pThr286: #12716S, Cell Signalling Technology; goat anti-rabbit HRP: #PI-1000 X0126, Vector). […]
To this end, sham mice or mice were treated with either saline or 175 mg/kg A (i.p.) 3 hrs after the injury. […] Autophosphorylation was assessed by Western blot analysis and levels of pThr286 CAMK2A normalized to total CAMK2A to detect changes in autophosphorylation.

T1 sequence (P11798 whole entry): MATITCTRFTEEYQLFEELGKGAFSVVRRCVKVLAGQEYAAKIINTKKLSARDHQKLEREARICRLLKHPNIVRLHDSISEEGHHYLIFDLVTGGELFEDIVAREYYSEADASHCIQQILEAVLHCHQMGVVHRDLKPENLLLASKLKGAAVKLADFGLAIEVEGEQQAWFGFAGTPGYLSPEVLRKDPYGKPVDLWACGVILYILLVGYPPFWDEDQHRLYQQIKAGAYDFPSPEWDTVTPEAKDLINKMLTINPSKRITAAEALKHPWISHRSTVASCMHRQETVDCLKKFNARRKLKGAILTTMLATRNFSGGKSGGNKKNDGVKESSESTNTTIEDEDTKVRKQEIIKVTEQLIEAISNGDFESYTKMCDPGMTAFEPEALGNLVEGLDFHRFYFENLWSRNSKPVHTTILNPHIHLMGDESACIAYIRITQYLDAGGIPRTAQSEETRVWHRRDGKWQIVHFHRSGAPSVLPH

SMILES: O=C(O)C1=CC(O)CC1 (centres unmarked) [Compound A, 3-hydroxycyclopent-1-enecarboxylic acid]
- infarct volume [1]: 12.3 mm^3
- Hargreaves test, increased response time in affected forelimb [2]: not evident
- rotarod test, learning ([2]; 48 hrs post-stroke, T1 to T2): steeper learning curve
- grip strength deficit in affected fore limb ([2]; three days after stroke): did not demonstrate any deficit
- decrease in pThr286 autophosphorylation [3]: 73%
